Experimental data taken from ChEMBL document CHEMBL3421607, “Design, synthesis and antibacterial activity of cinnamaldehyde derivatives as inhibitors of the bacterial cell division protein FtsZ” (Eur J Med Chem, 2015).

What was measured:
Type in all cases: functional
Staphylococcus aureus [1] = experiment: microbe, parasite or virus in culture; conditions: ATCC 25923, 24 h
Description: Antibacterial activity against penicillin-susceptible Staphylococcus aureus ATCC 25923 after 24 hrs by broth microdilution method

Staphylococcus aureus [2] = experiment: Antibacterial activity against penicillin-resistant Staphylococcus aureus clinical isolates after 24 hrs by broth microdilution method
Bacillus subtilis [3] = experiment: microbe, parasite or virus in culture; conditions: ATCC 9372, 24 h
Description: Antibacterial activity against penicillin-susceptible Bacillus subtilis ATCC 9372 after 24 hrs by broth microdilution method

Staphylococcus aureus [4] = experiment: microbe, parasite or virus in culture; conditions: ATCC 25923, 5 h
Description: Inhibition of cell division in penicillin-susceptible Staphylococcus aureus ATCC 25923 assessed as ballooning after 5 hrs by phase contrast microscopy

Escherichia coli [5] = experiment: microbe, parasite or virus in culture; conditions: ATCC 25922, 24 h
Description: Antibacterial activity against penicillin-susceptible Escherichia coli ATCC 25922 after 24 hrs by broth microdilution method

Escherichia coli [6] = experiment: microbe, parasite or virus in culture; conditions: ATCC 25922, 5 h
Description: Inhibition of cell division in penicillin-susceptible Escherichia coli ATCC 25922 assessed as filamentation after 5 hrs by phase contrast microscopy

Staphylococcus aureus [7] = experiment: microbe, parasite or virus in culture; conditions: ATCC 29213, 24 h
Description: Antibacterial activity against methicillin-resistant Staphylococcus aureus ATCC 29213 after 24 hrs by broth microdilution method

Streptococcus pyogenes [8] = experiment: Antibacterial activity against penicillin-susceptible Streptococcus pyogenes clinical isolates after 24 hrs by broth microdilution method
Bacillus subtilis [9] = experiment: microbe, parasite or virus in culture; conditions: ATCC 9372, 5 h
Description: Inhibition of cell division in penicillin-susceptible Bacillus subtilis ATCC 9372 assessed as filamentation after 5 hrs by phase contrast microscopy

Pseudomonas aeruginosa [10] = experiment: microbe, parasite or virus in culture; conditions: ATCC 27853, 24 h
Streptococcus pyogenes [11] = experiment: Antibacterial activity against penicillin-resistant Streptococcus pyogenes clinical isolates after 24 hrs by broth microdilution method
Pseudomonas aeruginosa [12] = experiment: microbe, parasite or virus in culture; conditions: ATCC 27853, 5 h
Description: Inhibition of cell division in penicillin-susceptible Pseudomonas aeruginosa ATCC 27853 assessed as filamentation after 5 hrs by phase contrast microscopy

[13] = test system: Staphylococcus epidermidis; experiment: Antibacterial activity against penicillin-resistant Staphylococcus epidermidis clinical isolates after 24 hrs by broth microdilution method

Measured: MIC

COc1cc(/C=C/C(=O)CC(=O)/C=C/c2ccc(O)c(OC)c2)ccc1O [CURCUMIN]
> 128 µg/mL: Staphylococcus aureus [1] | Staphylococcus aureus [2] | Staphylococcus aureus [4] | Escherichia coli [5] | Escherichia coli [6] | Staphylococcus aureus [7] | Streptococcus pyogenes [8] | Pseudomonas aeruginosa [10]
32 µg/mL: Bacillus subtilis [3]
16 µg/mL: Bacillus subtilis [9]

CC(C)NC(=O)/C=C/c1ccc(Cl)cc1Cl [3-(2,4-DICHLOROPHENYL)-N-ISOPROPYLACRYLAMIDE]
128 µg/mL: Escherichia coli [5] | Pseudomonas aeruginosa [10]
64 µg/mL: Streptococcus pyogenes [8]
> 128 µg/mL: Staphylococcus aureus [1] | Staphylococcus aureus [2] | Bacillus subtilis [3] | Streptococcus pyogenes [11] | Pseudomonas aeruginosa [12] | Escherichia coli [6] | Staphylococcus aureus [7] | [13]
32 µg/mL: Staphylococcus aureus [4] | Bacillus subtilis [9]

COc1ccc(/C=C/C(=O)n2c(C)nc3ccccc32)cc1OC
> 128 µg/mL: Staphylococcus aureus [1] | Staphylococcus aureus [2] | Bacillus subtilis [3] | Pseudomonas aeruginosa [12] | Staphylococcus aureus [7] | [13] | Bacillus subtilis [9]
64 µg/mL: Staphylococcus aureus [4] | Streptococcus pyogenes [11] | Streptococcus pyogenes [8]
128 µg/mL: Escherichia coli [5] | Escherichia coli [6] | Pseudomonas aeruginosa [10]

CCCNC(=O)/C=C/c1ccc(Cl)cc1Cl [3-(2,4-DICHLOROPHENYL)-N-PROPYLACRYLAMIDE]
64 µg/mL: Staphylococcus aureus [4]
128 µg/mL: Escherichia coli [5] | Streptococcus pyogenes [8] | Pseudomonas aeruginosa [10]
32 µg/mL: Bacillus subtilis [9]
> 128 µg/mL: Staphylococcus aureus [1] | Staphylococcus aureus [2] | Bacillus subtilis [3] | Streptococcus pyogenes [11] | Pseudomonas aeruginosa [12] | Escherichia coli [6] | Staphylococcus aureus [7] | [13]

COc1ccccc1/C=C/C(=O)N1CCN(C(c2ccccc2)c2ccc(Cl)cc2)CC1 (centres undefined)
> 128 µg/mL: Staphylococcus aureus [1] | Staphylococcus aureus [2] | Bacillus subtilis [3] | Pseudomonas aeruginosa [12] | Escherichia coli [5] | Escherichia coli [6] | Staphylococcus aureus [7] | Streptococcus pyogenes [8] | [13] | Bacillus subtilis [9] | Pseudomonas aeruginosa [10]
64 µg/mL: Staphylococcus aureus [4]

COc1ccc(/C=C/C(=O)Nc2cccnc2)cc1
128 µg/mL: Bacillus subtilis [3] | Streptococcus pyogenes [11] | Pseudomonas aeruginosa [12] | Escherichia coli [5] | Escherichia coli [6] | [13] | Pseudomonas aeruginosa [10]
4 µg/mL: Staphylococcus aureus [4]
64 µg/mL: Staphylococcus aureus [2]
> 128 µg/mL: Staphylococcus aureus [7] | Streptococcus pyogenes [8] | Bacillus subtilis [9]
32 µg/mL: Staphylococcus aureus [1]

CC(C)NC(=O)/C=C/c1ccc([N+](=O)[O-])cc1
> 128 µg/mL: Staphylococcus aureus [1] | Staphylococcus aureus [2] | Bacillus subtilis [3] | Staphylococcus aureus [4] | Pseudomonas aeruginosa [12] | Escherichia coli [5] | Escherichia coli [6] | Staphylococcus aureus [7] | Bacillus subtilis [9] | Pseudomonas aeruginosa [10]

CCN(CC)C(=O)/C=C/c1ccc(OC)c(OC)c1
64 µg/mL: Staphylococcus aureus [4]
128 µg/mL: Bacillus subtilis [3] | Pseudomonas aeruginosa [12] | Escherichia coli [5] | Escherichia coli [6] | Bacillus subtilis [9]
> 128 µg/mL: Staphylococcus aureus [1] | Staphylococcus aureus [2] | Staphylococcus aureus [7] | Streptococcus pyogenes [8] | [13] | Pseudomonas aeruginosa [10]

O=C(/C=C/c1ccc(Cl)cc1Cl)N1CCOCC1
64 µg/mL: [13]
128 µg/mL: Streptococcus pyogenes [11] | Escherichia coli [5] | Pseudomonas aeruginosa [10]
> 128 µg/mL: Staphylococcus aureus [1] | Staphylococcus aureus [2] | Bacillus subtilis [3] | Staphylococcus aureus [4] | Pseudomonas aeruginosa [12] | Escherichia coli [6] | Staphylococcus aureus [7] | Streptococcus pyogenes [8] | Bacillus subtilis [9]

CCCCNC(=O)/C=C/c1ccc(OC)c(OC)c1
> 128 µg/mL: Staphylococcus aureus [1] | Staphylococcus aureus [2] | Bacillus subtilis [3] | Staphylococcus aureus [4] | Pseudomonas aeruginosa [12] | Escherichia coli [5] | Escherichia coli [6] | Staphylococcus aureus [7] | Bacillus subtilis [9] | Pseudomonas aeruginosa [10]

O=C(/C=C/c1ccccc1Cl)N1CCN(C(c2ccccc2)c2ccc(Cl)cc2)CC1 (centres undefined)
128 µg/mL: Pseudomonas aeruginosa [12]
> 128 µg/mL: Staphylococcus aureus [1] | Staphylococcus aureus [2] | Bacillus subtilis [3] | Staphylococcus aureus [4] | Escherichia coli [5] | Escherichia coli [6] | Staphylococcus aureus [7] | Streptococcus pyogenes [8] | [13] | Bacillus subtilis [9] | Pseudomonas aeruginosa [10]

COc1ccc(/C=C/C(=O)n2c(C)nc3ccccc32)cc1
32 µg/mL: [13]
128 µg/mL: Staphylococcus aureus [1] | Bacillus subtilis [3] | Escherichia coli [5] | Staphylococcus aureus [7] | Pseudomonas aeruginosa [10]
> 128 µg/mL: Staphylococcus aureus [4] | Pseudomonas aeruginosa [12] | Escherichia coli [6] | Streptococcus pyogenes [8] | Bacillus subtilis [9]
64 µg/mL: Staphylococcus aureus [2]

COc1ccc(/C=C/C(=O)N(C)C)cc1OC
> 128 µg/mL: Pseudomonas aeruginosa [12] | Staphylococcus aureus [7] | Streptococcus pyogenes [8] | [13] | Bacillus subtilis [9]
8 µg/mL: Staphylococcus aureus [4]
32 µg/mL: Staphylococcus aureus [1]
64 µg/mL: Staphylococcus aureus [2]
128 µg/mL: Bacillus subtilis [3] | Escherichia coli [5] | Escherichia coli [6] | Pseudomonas aeruginosa [10]

O=C(O)c1cn(C2CC2)c2cc(N3CCNCC3)c(F)cc2c1=O [CIPROFLOXACIN]
8 µg/mL: Staphylococcus aureus [1] | Staphylococcus aureus [2] | Bacillus subtilis [3] | Streptococcus pyogenes [8]
> 128 µg/mL: Staphylococcus aureus [4] | Streptococcus pyogenes [11] | Pseudomonas aeruginosa [12] | Escherichia coli [6] | [13] | Bacillus subtilis [9]
4 µg/mL: Staphylococcus aureus [7] | Pseudomonas aeruginosa [10]

CCCCNC(=O)/C=C/c1ccc(C#N)cc1
> 128 µg/mL: Staphylococcus aureus [1] | Staphylococcus aureus [2] | Bacillus subtilis [3] | Staphylococcus aureus [4] | Pseudomonas aeruginosa [12] | Escherichia coli [5] | Escherichia coli [6] | Staphylococcus aureus [7] | Bacillus subtilis [9] | Pseudomonas aeruginosa [10]

Cc1nccn1-c1cc(NC(=O)/C=C/c2ccc([N+](=O)[O-])cc2)cc(C(F)(F)F)c1
128 µg/mL: Staphylococcus aureus [1] | Bacillus subtilis [3] | Streptococcus pyogenes [11] | Pseudomonas aeruginosa [12] | Bacillus subtilis [9]
> 128 µg/mL: Staphylococcus aureus [2] | Escherichia coli [5] | Escherichia coli [6] | Staphylococcus aureus [7] | [13] | Pseudomonas aeruginosa [10]
32 µg/mL: Staphylococcus aureus [4] | Streptococcus pyogenes [8]

CCN(CC)C(=O)/C=C/c1cc(OC)c(OC)c(OC)c1
128 µg/mL: Bacillus subtilis [3] | Pseudomonas aeruginosa [12] | Escherichia coli [5] | Escherichia coli [6] | Bacillus subtilis [9] | Pseudomonas aeruginosa [10]
> 128 µg/mL: Staphylococcus aureus [7] | Streptococcus pyogenes [8] | [13]
32 µg/mL: Staphylococcus aureus [4]
64 µg/mL: Staphylococcus aureus [1] | Staphylococcus aureus [2]

CCCNC(=O)/C=C/c1ccc([N+](=O)[O-])cc1
> 128 µg/mL: Staphylococcus aureus [1] | Staphylococcus aureus [2] | Bacillus subtilis [3] | Staphylococcus aureus [4] | Pseudomonas aeruginosa [12] | Escherichia coli [5] | Escherichia coli [6] | Staphylococcus aureus [7] | Bacillus subtilis [9] | Pseudomonas aeruginosa [10]

O=C(/C=C/c1ccc(F)cc1)N1CCOCC1
128 µg/mL: Bacillus subtilis [3] | Pseudomonas aeruginosa [12] | Escherichia coli [5] | Escherichia coli [6] | Bacillus subtilis [9] | Pseudomonas aeruginosa [10]
> 128 µg/mL: Staphylococcus aureus [1] | Staphylococcus aureus [2] | Staphylococcus aureus [4] | Staphylococcus aureus [7] | Streptococcus pyogenes [8] | [13]

C#CCNC(=O)/C=C/c1ccc([N+](=O)[O-])cc1
> 128 µg/mL: Staphylococcus aureus [1] | Staphylococcus aureus [2] | Bacillus subtilis [3] | Staphylococcus aureus [4] | Pseudomonas aeruginosa [12] | Escherichia coli [5] | Escherichia coli [6] | Staphylococcus aureus [7] | Bacillus subtilis [9] | Pseudomonas aeruginosa [10]

COc1cc(/C=C/C(=O)N2CCOCC2)cc(OC)c1OC
64 µg/mL: Staphylococcus aureus [1]
16 µg/mL: Staphylococcus aureus [4]
128 µg/mL: Bacillus subtilis [3] | Escherichia coli [5] | Escherichia coli [6] | Staphylococcus aureus [7] | Bacillus subtilis [9]
> 128 µg/mL: Staphylococcus aureus [2] | Pseudomonas aeruginosa [12] | Streptococcus pyogenes [8] | [13] | Pseudomonas aeruginosa [10]

C#CCNC(=O)/C=C/c1ccc(OC)c(OC)c1
> 128 µg/mL: Staphylococcus aureus [1] | Staphylococcus aureus [2] | Bacillus subtilis [3] | Staphylococcus aureus [4] | Pseudomonas aeruginosa [12] | Escherichia coli [5] | Escherichia coli [6] | Staphylococcus aureus [7] | Bacillus subtilis [9] | Pseudomonas aeruginosa [10]

COc1ccc(/C=C/C(=O)N2CCOCC2)cc1OC
128 µg/mL: Bacillus subtilis [3] | Escherichia coli [5] | Escherichia coli [6]
> 128 µg/mL: Staphylococcus aureus [1] | Staphylococcus aureus [2] | Staphylococcus aureus [4] | Pseudomonas aeruginosa [12] | Staphylococcus aureus [7] | Streptococcus pyogenes [8] | [13] | Bacillus subtilis [9] | Pseudomonas aeruginosa [10]

COc1cc(/C=C/C(=O)N(C)C)cc(OC)c1OC
128 µg/mL: Bacillus subtilis [3] | Pseudomonas aeruginosa [12] | Escherichia coli [5] | Escherichia coli [6] | Pseudomonas aeruginosa [10]
> 128 µg/mL: Staphylococcus aureus [1] | Staphylococcus aureus [2] | Staphylococcus aureus [4] | Staphylococcus aureus [7] | Streptococcus pyogenes [8] | [13] | Bacillus subtilis [9]

O=C(/C=C/c1ccc(Cl)cc1Cl)N1CCN(C(c2ccccc2)c2ccc(Cl)cc2)CC1 (centres undefined)
> 128 µg/mL: Staphylococcus aureus [1] | Staphylococcus aureus [2] | Bacillus subtilis [3] | Pseudomonas aeruginosa [12] | Escherichia coli [5] | Escherichia coli [6] | Staphylococcus aureus [7] | Streptococcus pyogenes [8] | [13] | Pseudomonas aeruginosa [10]
64 µg/mL: Staphylococcus aureus [4] | Bacillus subtilis [9]

O=C(O)/C=C/c1ccccc1 [CINNAMIC ACID]
> 128 µg/mL: Staphylococcus aureus [1] | Staphylococcus aureus [2] | Bacillus subtilis [3] | Staphylococcus aureus [4] | Pseudomonas aeruginosa [12] | Escherichia coli [5] | Escherichia coli [6] | Staphylococcus aureus [7] | Streptococcus pyogenes [8] | [13] | Bacillus subtilis [9] | Pseudomonas aeruginosa [10]

CCCCNC(=O)/C=C/c1ccc([N+](=O)[O-])cc1
> 128 µg/mL: Staphylococcus aureus [1] | Staphylococcus aureus [2] | Bacillus subtilis [3] | Staphylococcus aureus [4] | Pseudomonas aeruginosa [12] | Escherichia coli [5] | Escherichia coli [6] | Staphylococcus aureus [7] | Bacillus subtilis [9] | Pseudomonas aeruginosa [10]
